For 24 molecules, IC50 and EC50 results are on record in ChEMBL document CHEMBL5346934 (J Med Chem, 2023).

In test [1] the test system is Vaccinia virus. Briefly: Antiviral activity against Vaccinia virus WR-GFP infected in BSC40 cells assessed as reduction in plaque formation measured after 72 hrs by crystal violet staining based analysis. The test is classed as functional, organism-based. The following applies: Orthopoxvirus vaccinia, BSC-40, 72 h.
Test [2] deals with Vaccinia virus. Description: Antiviral activity against Vaccinia virus IHD-J infected in BSC40 cells assessed as reduction in plaque formation measured after 72 hrs by crystal violet staining based analysis. The test is classed as functional, organism-based. The following applies: Orthopoxvirus vaccinia, BSC-40, 72 h.
Test [3] has as its system Monkeypox virus. Briefly: Antiviral activity against Monkeypox virus V79-1-005 infected in Vero cells measured after 4 days by colorimetric assay. The following applies: V79-1-005, Vero, 96 h. The test is classed as functional, organism-based.
Test [4] has as its system Ectromelia virus. Description: Antiviral activity against ectromelia virus K-1 infected in Vero cells measured after 4 days by colorimetric assay. The following applies: K-1, Vero, 96 h. Type of test: functional, organism-based.
In test [5] the test system is Vaccinia virus. Description: Antiviral activity against Vaccinia virus infected in Vero cells measured after 4 days by colorimetric assay. Type of test: functional, organism-based. The following applies: Orthopoxvirus vaccinia, 96 h.
The subject of test [6] is Vaccinia virus. Briefly: Antiviral activity against Vaccinia virus Copenhagen infected in African green monkey Vero cells. The following applies: Orthopoxvirus vaccinia. The test is classed as functional, organism-based.
Test [7] relates to Ectromelia virus. Description: Antiviral activity against ectromelia virus K-1 infected in Vero cells. The following applies: K-1, Vero. Type of test: functional, organism-based.
Test [8] has as its system Cowpox virus. Briefly: Antiviral activity against Cowpox virus Grishak infected in African green monkey Vero cells. The test is classed as functional, organism-based.
Test [9] has as its system Cowpox virus. Description: Antiviral activity against Cowpox virus infected in Vero cells measured after 4 days by colorimetric assay. The test is classed as functional, organism-based. The following applies: 96 h.
Test [10] concerns Vaccinia virus. Description: Antiviral activity against Vaccinia virus infected in monkey BSC40 cells assessed as reduction in virus-induced cytopathic effect. Type of test: functional, organism-based. The following applies: Orthopoxvirus vaccinia, BSC-40. Background: Damage to the host cells serves as the signal in cytopathic effect assays.
Test [11] concerns Vaccinia virus. Description: Antiviral activity against Vaccinia virus GFP infected in green monkey CV-1 cells assessed as reduction in plaque formation measured after 2.5 days by microscopic analysis. The test is classed as functional, organism-based. The following applies: Orthopoxvirus vaccinia, CV-1, 60 h.
In test [12] the test system is Vaccinia virus. Briefly: Antiviral activity against Vaccinia virus GFP infected in green […] cells assessed as reduction in plaque formation measured after 2.5 days by microscopic analysis. Type of test: functional, organism-based. The following applies: Orthopoxvirus vaccinia, HT-1080, 60 h.
Test [13] relates to Vaccinia virus. Briefly: Antiviral activity against Vaccinia virus Copenhagen infected in human HFF cells assessed as assessed as reduction in virus-induced cytopathic effect incubated for 7 days by microscopic analysis. The test is classed as functional, organism-based. The following applies: Orthopoxvirus vaccinia, 168 h.
In test [14] the test system is Variola virus. Briefly: Antiviral activity against Variola virus 7124 infected in monkey LLC-MK2 cells. The test is classed as functional, organism-based. The following applies: Variola virus, 7124, LLC-MK2.
Test [15] deals with Cowpox virus. Description: Antiviral activity against Cowpox virus Brighton infected in Vero cells measured after 4 days by colorimetric assay. Type of test: functional, organism-based. The following applies: 96 h.
Test [16] relates to Vaccinia virus. Description: Antiviral activity against Vaccinia virus Copenhagen infected in HFF cells measured after 3 days by colorimetric assay. The test is classed as functional, organism-based. The following applies: Orthopoxvirus vaccinia, 72 h.
Test [17] deals with Monkeypox virus. Description: Antiviral activity against Monkeypox virus Zr-599 infected in African green monkey Vero E6 cells assessed as reduction in plaque formation measured after 72 hrs by microscopic analysis. The following applies: Zr-599, Vero C1008, 72 h. The test is classed as functional, organism-based.
For test [18], the system named is Vaccinia virus. Briefly: Antiviral activity against Vaccinia virus infected in African green monkey Vero cells assessed as reduction virus induced cytopathic effect incubated for 24 hrs by MTT assay. The test is classed as functional, organism-based. The following applies: Orthopoxvirus vaccinia.
Test [19] concerns Vaccinia virus. Briefly: Antiviral activity against Vaccinia virus IHD infected in African green monkey Vero cells assessed as reduction in plaque formation measured after 7 days. The test is classed as functional, organism-based. The following applies: Orthopoxvirus vaccinia, 168 h.
Test [20] concerns Vaccinia virus. Description: Antiviral activity against wild type Vaccinia virus IHD infected in monkey Vero cells assessed as reduction in plaque formation measured after 7 days. Type of test: functional, organism-based. The following applies: Orthopoxvirus vaccinia, 168 h.
A further test has as its system Human alphaherpesvirus 2. Briefly: Antiviral activity against Herpes simplex virus 2. The test is classed as functional, organism-based.
The subject of test [21] is Vaccinia virus. Briefly: Antiviral activity against Vaccinia virus infected in human HFF cells. The test is classed as functional, organism-based. The following applies: Orthopoxvirus vaccinia.
Test [22] relates to Variola virus. Description: Antiviral activity against Variola virus 7124 infected in African green monkey BSC-1 cells. Type of test: functional, organism-based. The following applies: Variola virus, 7124, BSC-1.
Test [23] concerns Vaccinia virus. Briefly: Antiviral activity against Cowpox virus Brighton infected in human HFF cells assessed as reduction in viral replication measured after 3 days. The test is classed as functional, organism-based. The following applies: Orthopoxvirus vaccinia, 72 h.
Test [24] concerns Vaccinia virus. Briefly: Antiviral activity against Vaccinia virus Copenhagen infected in human HFF cells assessed as reduction in viral replication measured after 3 days. Type of test: functional, organism-based. The following applies: Orthopoxvirus vaccinia, 72 h.
In test [25] the test system is Vaccinia virus. Description: Antiviral activity against Vaccinia virus VG9 infected in African green monkey BSC-1 cells. The test is classed as functional, organism-based, Orthopoxvirus vaccinia. The following applies: Orthopoxvirus vaccinia, VG9, BSC-1.
In test [26] the test system is Cowpox virus. Description: Antiviral activity against Cowpox virus infected in African green monkey BSC-1 cells. The test is classed as functional, organism-based.
Test [27] deals with Vaccinia virus. Briefly: Antiviral activity against Vaccinia virus infected in African green monkey BSC-1 cells. The following applies: Orthopoxvirus vaccinia, BSC-1. Type of test: functional, organism-based, Orthopoxvirus vaccinia.
In test [28] the test system is Monkeypox virus. Description: Antiviral activity against Monkeypox virus infected in African green monkey BSC-1 cells. The test is classed as functional, organism-based.
In test [29] the test system is Vaccinia virus. Description: Antiviral activity against wild type Vaccinia virus infected in human HFF cells assessed as reduction in viral replication measured after 5 days by microscopic analysis. The test is classed as functional, organism-based. The following applies: Orthopoxvirus vaccinia, 120 h.
Test [30] relates to Vaccinia virus. Briefly: Antiviral activity against Vaccinia virus infected in human HFF cells assessed as reduction in plaque formation measured after 7 days by colorimetric assay. The test is classed as functional, organism-based. The following applies: Orthopoxvirus vaccinia, 168 h.
Test [31] deals with Vaccinia virus. Briefly: Antiviral activity against Vaccinia virus infected in human HFF cells measured after 4 days by colorimetric assay. The following applies: Orthopoxvirus vaccinia, 96 h. The test is classed as functional, organism-based.

In brackets after ≈: the same amount, converted by molar mass.

What is called IC50 is the concentration needed to halve the response being measured. Usually EC50 stands for the concentration giving half of the maximal effect. Consider `O=C1CN(C(=O)c2nccs2)C(c2cccc(Cl)c2)c2cc(Br)ccc2N1` (centres undefined), for which the IC50 with Vaccinia virus [1] was determined as 1.3 µM. For the same molecule, the EC50 in the test with Vaccinia virus [2] amounted to 0.5 µM. For the molecule `O=C(NNC(=O)C1C2C=CC(C3CC23)C1C(=O)O)c1ccccc1O` (centres undefined), the results for the EC50 with Monkeypox virus [3], in the test with Ectromelia virus [4] and with Vaccinia virus [5] were 0.153 µg/mL (≈ 0.447 µM), 0.54 µg/mL (≈ 1.58 µM) and 0.032 µg/mL (≈ 0.0935 µM), respectively.

For `CC1(C)[C@@H]2CC[C@@]1(C)C(NC(=O)c1ccc([N+](=O)[O-])cc1)C2` (some centres undefined), the EC50 in the test with Vaccinia virus [6] is 0.03 µM; in the test on Ectromelia virus [7], 0.41 µM; in the test on Cowpox virus [8], 1.4 µM. Molecule `CC(=O)OCC(COC(C)=O)OCn1cnc2c(N)ncnc21` yielded an EC50 in the test with Cowpox virus [9] of 2 µM.

With `COc1ccc(CCNC(=O)c2cc3ccccc3cc2O)cc1-c1ccc([N+](=O)[O-])cc1`, the EC50 in the test on Vaccinia virus [10] is 12 µM.

Take `O=[N+]([O-])c1cc(/C=N/c2ccccc2/N=C/c2ccc(O)c(O)c2)ccc1O`: the EC50 turned out to be 13.2 µM in the test on Vaccinia virus [11] and 10.9 µM with Vaccinia virus [12].

On to `Cc1ccnc(NC(c2ccccc2F)c2ccc3cccnc3c2O)c1` (centres undefined), for which the EC50 with Vaccinia virus [13] stood at 2.9 µM. `Nc1ccn([C@@H]2C=C(CO)[C@@H](O)[C@H]2O)c(=O)n1` came in with an EC50 in the test on Variola virus [14] of 0.03 µM. With `Cc1cn([C@H]2C[C@H](O)[C@]3(CO)C[C@H]23)c(=O)[nH]c1=O` [(NORTH)-METHANOCARBATHYMIDINE], the IC50 is 1.5 µM in the test on Cowpox virus [15] and 0.55 µM in the test on Vaccinia virus [16].

With `O=C1C(O)=C([C@H]2CC[C@H](c3ccc(Cl)cc3)CC2)C(=O)c2ccccc21` [ATOVAQUONE], the EC50 in the test with Monkeypox virus [17] was 0.52 µM.

In the test on Cowpox virus [15], `CCCCCCCCCCCCCCCCOCCCOP(=O)(O)CO[C@H](CO)Cn1ccc(N)nc1=O` [BRINCIDOFOVIR] had an EC50 of 0.6 µM.

In the case of `Nc1ccn(C[C@@H](CO)OCP(=O)(O)O)c(=O)n1` [CIDOFOVIR ANHYDROUS], the values for the EC50 in the test with Vaccinia virus [18] and with Cowpox virus [9] were 46.2 µM and 44.7 µM, respectively.

For the molecule `C=C(CC)C(=O)c1ccc(OCC(=O)O)c(Cl)c1Cl` [ETHACRYNIC ACID], the EC50 with Vaccinia virus [19] was determined as 20 µM; in the test with Vaccinia virus [20] it was 40 µM.

Take `Oc1ccc(Cl)cc1Sc1cc(Cl)ccc1O` [FENTICLOR]: the IC50 in the test on Human alphaherpesvirus 2 amounted to 2.4 µM; in the test with Vaccinia virus [21], 5.7 µM. On to `O[C@H]1[C@H]2c3cc4c(cc3CN3CCC(=C[C@@H]1O)[C@H]23)OCO4` [LYCORINE], for which the EC50 in the test with Variola virus [22] was found to be 5 µM. Take `OC(c1cc(C(F)(F)F)nc2c(C(F)(F)F)cccc12)C1CCCCN1` (centres undefined) [MEFLOQUINE]: the EC50 in the test with Monkeypox virus [17] is 5.19 µM.

With `CN1C(=O)/C(=N\NC(N)=S)c2ccccc21` [METHISAZONE], the EC50 came to 14 µM with Vaccinia virus [23] and 3.3 µM in the test on Vaccinia virus [24]. `O=C1c2c(O)ccc(O)c2C(=O)c2c(NCCNCCO)ccc(NCCNCCO)c21` [MITOXANTRONE]: the EC50 with Vaccinia virus [25] is 0.7 µM; with Variola virus [22], 0.25 µM; with Cowpox virus [26] it was 0.25 µM; in the test with Vaccinia virus [27], 0.5 µM; in the test with Monkeypox virus [28], 0.8 µM. For `CC(C)C(=O)OC[C@H]1O[C@@H](n2cc/c(=N\O)[nH]c2=O)[C@H](O)[C@@H]1O` [MOLNUPIRAVIR], in the test with Monkeypox virus [17], the EC50 was 1.35 µM. In the case of `Nc1ncnc2c1ncn2[C@@H]1C=C(CO)[C@@H](O)[C@H]1O` [NEOPLANOCIN A], the response in the test on Variola virus [14] was half-maximal at 0.1 µM (EC50). Take `CC(=O)Oc1ccccc1C(=O)Nc1ncc([N+](=O)[O-])s1` [NITAZOXANIDE]: the EC50 with Vaccinia virus [29] was determined as 1.95 µM.

With `CC[C@H](CO)Nc1nc(NCc2ccccc2O)c2ncn(C(C)C)c2n1` [OLOMOUCINE II], the EC50 in the test on Vaccinia virus [30] was determined as 3.8 µM. As for `CO[C@H]1/C=C/O[C@@]2(C)Oc3c(C)c(O)c4c(O)c(c(/C=N/N5CCN(C)CC5)c(O)c4c3C2=O)NC(=O)/C(C)=C\C=C\[C@H](C)[C@H](O)[C@@H](C)[C@@H](O)[C@@H](C)[C@H](OC(C)=O)[C@@H]1C` [RIFAMPIN], the IC50 in the test on Vaccinia virus [21] is around 100 µg/mL. In the case of `NC(=O)c1cn([C@@H]2O[C@H](CO)[C@@H](O)[C@H]2O)c2ncnc(N)c12` [SANGIVAMYCIN], in the test on Vaccinia virus [31], a half-maximal effect (EC50) was put at 0.065 µM.
